The NIST ThermoML archive (doi:10.1016/j.jct.2012.08.018)
± gives the expanded uncertainty stated by the source.

Assay: molar enthalpy of vaporization or sublimation
Details: 298.15 K; Crystal; Static calorimetry

Row | Compound | molar enthalpy
1 | CCOC(N)=O [ethyl carbamate] | 18.6 ± 0.335 kcal/mol
2 | COC(N)=O [carbamic acid, methyl ester] | 17.6 ± 0.311 kcal/mol
